{
  "source": "patent US20040229268A1",
  "about": "“Method and kit for identifying antibiotic-resistant microorganisms” (priority 2003, published 2004)",
  "format_in_all_cases": "binding, S. aureus",
  "key": {"[1]": {"tested_on": "mecA gene; rRNA (pan-bacterial probe)", "test": "Hybridization Protection Assay (HPA), AE-labeled probes, thermally lysed specimens (Examples 1-2)", "protocol": "The specimens were lysed by suspending approximately 5×10^8 cells in a lysis buffer (0.1% lithium lauryl sulfate, 1 mM EDTA, 20 mM lithium succinate, pH 5.5) and then incubating in a heat block set at 110° C. for 20 minutes. Thermal lysis of a variety of other specimens was effected under a range of temperature (heat block set at about 95° C. to 110° C.) and time (about 10 to 25 minutes) conditions. The lysed samples were tested for the presence of target sequences complementary to the probes using a Hybridization Protection Assay (HPA) as described by Arnold et al., in Clin. Chem. 35:1588(1989) and U.S. Pat. No. 6,004,745. 50 μl of the heat-treated suspension was incubated with an equal volume of AE-labeled probe in 2× hybridization buffer (1.2 M LiCl, 2% lithium lauryl sulfate, 20 mM EDTA, 20 mM EGTA, 100 mM lithium succinate, pH 5.5) at 60° C. for 30 minutes. The pH of succinate solutions may range from about 4.5 to about 5.5, although it is desirable to use a pH of 4.8 for succinate buffering. 300 μl of a selection reagent (0.6 M borate buffered solution, pH 8.5; note, pH may vary from 8.0 to 9.0) was added, the mixture was heated at 60° C. for 10 minutes to effect differential hydrolysis, and the samples were read in a GEN-PROBE® LEADER® luminometer using sequential 300 μl injections of 0.1% H2O2 and 1 N NaOH solutions (see Arnold et al, supra; GEN-PROBE® Detection Reagent Kit, Cat. No. 1791 may be used).\nProcedures similar to those described in Example 1 were conducted using a large number of bacterial samples, except that parallel hybridization reactions employed a pan-bacterial probe which targeted rRNA (Probe Reagent 1, GEN-PROBE® MTC-NI Kit, catalog no. 4573). […] The pan-bacterial probe reagent served as a positive control for lysis of all of the specimens. In this procedure each sample was tested against a panel of the three probes contained in separate hybridization reactions. Aliquots of the samples tested using the pan-bacterial probe reagent were diluted 1:3000 prior to performing luminometry so that results fell within the linear range of the detector. The signals indicated lysis and detection of ribosomal nucleic acids in each of the samples. These values depended on the number of bacterial cells in the specimen, as well as on the extent of cell lysis and the release or accessibility of ribosomal nucleic acids from the cells to be detected by the pan-bacterial probe."}, "[2]": {"tested_on": "rRNA/rDNA (pan-bacterial probe); mecA target sequence", "test": "HPA after base treatment of specimen or synthetic target (Example 3)", "protocol": "The effect of base treatment on a S. aureus specimen (#102) was evaluated using the pan-bacterial probe reagent. A pelleted sample of the specimen was suspended in 120 μl of lysis buffer and lysed by treatment for 20 minutes in a heat block set at 110° C. A 50 μl aliquot of the lysed specimen was treated with 50 μl of a 0.4 N LiOH solution at 55° C. for 10 minutes, and then neutralized with the addition of 50 μl of 0.4 N HCl and buffered with 50 μl of a 1× hybridization buffer (0.6 M LiCl, 1% lithium lauryl sulfate, 10 mM EDTA, 10 mM EGTA, 50 mM lithium succinate, pH 5.5). The treated sample was hybridized with the AE-labeled pan-bacterial probe by incubating at 55° C. for 1 hour. An HPA assay to detect specific probe hybrids was carried out using standard procedures that will be familiar to those having an ordinary level of skill in the art. A control sample consisted of 50 μl of the lysed specimen and volumes of hydrolysis, neutralization and buffered solutions equivalent to those of the treated sample.\nFor example, the effect of base treatment with 0.8 N LiOH for 10 minutes at 55° C. was assessed using AE-probe 1. For these treatments, an equal volume of 0.8 N LiOH was added to the sample, and the reaction mixtures were neutralized with the addition of an equivalent volume of 0.8 N HCl prior to buffering and assaying by HPA. 300 μl aliquots of each reaction mixture were read in the luminometer. These procedures employed a single-stranded DNA oligonucleotide having the same sequence that was present in the target bacteria, and that was fully complementary to the hybridization probe undergoing testing, as synthetic target."}, "[3]": {"tested_on": "mecA gene; ribosomal nucleic acids", "test": "HPA, base treatment with and without thermal lysis (Example 4)", "protocol": "The effect of base treatment with and without the heat treatment in lysis buffer was evaluated using a S. aureus specimen (GP1217, ATCC #33591). In this procedure the sample was treated with 0.8 N LiOH and thermal lysis was conducted by heat treatment for 15 minutes. Other conditions were as described above. Probe 1 labeled with acridinium ester was used in this procedure."}},
  "data": [
    {"sequence": "GGTATGTGGAAGTTAGATTGGGATCATAGCG (AE label, linker between 13 and 14, chemistry not fully specified; listed as Staphylococcus aureus) [Probe 1]", "values": [
      {"measurement": "AE-probe Average RLU", "setting": "[1]; No Specimen", "value": 431, "unit": "RLU"},
      {"measurement": "AE-probe Average RLU", "setting": "[1]; S. aureus specimen #99, mecA PCR Pos", "value": 2664, "unit": "RLU"},
      {"measurement": "AE-probe Average RLU", "setting": "[1]; S. aureus specimen #100, mecA PCR Neg", "value": 590, "unit": "RLU"},
      {"measurement": "AE-Probe Signal (RLU)", "setting": "[1]; Table 2, Negative Control", "value": 1817, "unit": "RLU"},
      {"measurement": "AE-Probe Signal (RLU)", "setting": "[1]; Table 2, specimen 10, mecA PCR Neg, pan-bacterial diluted 1:3000 prior to luminometry", "value": 2918, "unit": "RLU"},
      {"measurement": "AE-Probe Signal (RLU)", "setting": "[1]; Table 2, specimen 99, mecA PCR Pos, pan-bacterial diluted 1:3000 prior to luminometry", "value": 5822, "unit": "RLU"},
      {"measurement": "AE-Probe Signal (RLU)", "setting": "[1]; Table 2, specimen 100, mecA PCR Neg, pan-bacterial diluted 1:3000 prior to luminometry", "value": 815, "unit": "RLU"},
      {"measurement": "AE-Probe Signal (RLU)", "setting": "[1]; Table 2, specimen 101, mecA PCR Neg, pan-bacterial diluted 1:3000 prior to luminometry", "value": 2768, "unit": "RLU"},
      {"measurement": "AE-Probe Signal (RLU)", "setting": "[1]; Table 2, specimen 102, mecA PCR Pos, pan-bacterial diluted 1:3000 prior to luminometry", "value": 5623, "unit": "RLU"},
      {"measurement": "AE-Probe Signal (RLU)", "setting": "[1]; Table 2, specimen 103, mecA PCR Neg, pan-bacterial diluted 1:3000 prior to luminometry", "value": 1097, "unit": "RLU"},
      {"measurement": "AE-Probe Signal (RLU)", "setting": "[1]; Table 2, specimen 104, mecA PCR Neg, pan-bacterial diluted 1:3000 prior to luminometry", "value": 959, "unit": "RLU"},
      {"measurement": "AE-Probe Signal (RLU)", "setting": "[1]; Table 2, specimen 105, mecA PCR Neg, pan-bacterial diluted 1:3000 prior to luminometry", "value": 1086, "unit": "RLU"},
      {"measurement": "AE-Probe Signal (RLU)", "setting": "[1]; Table 2, specimen 106, mecA PCR Neg, pan-bacterial diluted 1:3000 prior to luminometry", "value": 1327, "unit": "RLU"},
      {"measurement": "AE-Probe Signal (RLU)", "setting": "[1]; Table 2, specimen 139, mecA PCR Pos, pan-bacterial diluted 1:3000 prior to luminometry", "value": 5755, "unit": "RLU"},
      {"measurement": "AE-Probe Signal (RLU)", "setting": "[1]; Table 2, specimen 140, mecA PCR Pos, pan-bacterial diluted 1:3000 prior to luminometry", "value": 3143, "unit": "RLU"},
      {"measurement": "AE-Probe Signal (RLU)", "setting": "[1]; Table 2, specimen 142, mecA PCR Pos, pan-bacterial diluted 1:3000 prior to luminometry", "value": 6845, "unit": "RLU"},
      {"measurement": "AE-Probe Signal (RLU)", "setting": "[1]; Table 2, specimen 145, mecA PCR Neg, pan-bacterial diluted 1:3000 prior to luminometry", "value": 997, "unit": "RLU"},
      {"measurement": "AE-Probe Signal (RLU)", "setting": "[1]; Table 2, specimen 148, mecA PCR Pos, pan-bacterial diluted 1:3000 prior to luminometry", "value": 10483, "unit": "RLU"},
      {"measurement": "AE-Probe Signal (RLU)", "setting": "[1]; Table 2, specimen 155, mecA PCR Neg, pan-bacterial diluted 1:3000 prior to luminometry", "value": 730, "unit": "RLU"},
      {"measurement": "AE-Probe Signal (RLU)", "setting": "[1]; Table 2, specimen 164, mecA PCR Neg, pan-bacterial diluted 1:3000 prior to luminometry", "value": 1546, "unit": "RLU"},
      {"measurement": "AE-Probe Signal (RLU)", "setting": "[1]; Table 2, specimen 178, mecA PCR Pos, pan-bacterial diluted 1:3000 prior to luminometry", "value": 7772, "unit": "RLU"},
      {"measurement": "AE-Probe Signal (RLU)", "setting": "[1]; Table 2, specimen 188, mecA PCR Pos, pan-bacterial diluted 1:3000 prior to luminometry", "value": 11856, "unit": "RLU"},
      {"measurement": "AE-Probe Signal (RLU)", "setting": "[1]; Table 2, specimen 270, mecA PCR Pos, pan-bacterial diluted 1:3000 prior to luminometry", "value": 9256, "unit": "RLU"},
      {"measurement": "AE-Probe Signal (RLU)", "setting": "[1]; Table 2, specimen 296, mecA PCR Pos, Lab Pos control, pan-bacterial diluted 1:3000 prior to luminometry", "value": 5567, "unit": "RLU"},
      {"measurement": "AE-probe 1 Signal (RLU)", "setting": "[2]; #148, Control (no base treatment)", "value": 34677, "unit": "RLU"},
      {"measurement": "AE-probe 1 Signal (RLU)", "setting": "[2]; #148, base treated (0.8 N LiOH, 10 minutes, 55° C.)", "value": 42627, "unit": "RLU"},
      {"measurement": "AE-probe 1 Signal (RLU)", "setting": "[2]; Synthetic target + #148, Control", "value": 53367, "unit": "RLU"},
      {"measurement": "AE-probe 1 Signal (RLU)", "setting": "[2]; Synthetic target + #148, base treated", "value": 58565, "unit": "RLU"},
      {"measurement": "AE-probe 1 Signal (RLU)", "setting": "[2]; Synthetic target, Control (no base treatment)", "value": 22195, "unit": "RLU"},
      {"measurement": "AE-probe 1 Signal (RLU)", "setting": "[2]; Synthetic target, base treated (0.8 N LiOH, 10 minutes, 55° C.)", "value": 21283, "unit": "RLU"},
      {"measurement": "RLU", "setting": "[3]; GP1217, Base treatment 30 minutes at 60° C.", "value": 16016, "unit": "RLU"},
      {"measurement": "RLU", "setting": "[3]; GP1217, Thermal lysis 15 minutes at 100° C. + Base treatment 15 minutes at 60° C.", "value": 38017, "unit": "RLU"},
      {"measurement": "RLU", "setting": "[3]; Table 5, Negative Control", "value": 592, "unit": "RLU"}
    ]}
  ]
}
